Measurements from article PMC11345841, “Exploring 2-Sulfonylpyrimidine Warheads as Acrylamide Surrogates for Targeted Covalent Inhibition: A BTK Story” (Journal of Medicinal Chemistry, 2024).
Read-outs that look alike come from different tables or passages of the source.

How the values were obtained:
Experiment in all cases: KINOMEscan ScanTK
Format in all cases: binding
TRKA = molecular target: T1, TRKA (Homo sapiens, UniProt P04629); conditions: TRKA
T1 construct: purchased Eurofins DiscoverX KINOMEscan (scanTK)
T1 sequence (P04629 33-796): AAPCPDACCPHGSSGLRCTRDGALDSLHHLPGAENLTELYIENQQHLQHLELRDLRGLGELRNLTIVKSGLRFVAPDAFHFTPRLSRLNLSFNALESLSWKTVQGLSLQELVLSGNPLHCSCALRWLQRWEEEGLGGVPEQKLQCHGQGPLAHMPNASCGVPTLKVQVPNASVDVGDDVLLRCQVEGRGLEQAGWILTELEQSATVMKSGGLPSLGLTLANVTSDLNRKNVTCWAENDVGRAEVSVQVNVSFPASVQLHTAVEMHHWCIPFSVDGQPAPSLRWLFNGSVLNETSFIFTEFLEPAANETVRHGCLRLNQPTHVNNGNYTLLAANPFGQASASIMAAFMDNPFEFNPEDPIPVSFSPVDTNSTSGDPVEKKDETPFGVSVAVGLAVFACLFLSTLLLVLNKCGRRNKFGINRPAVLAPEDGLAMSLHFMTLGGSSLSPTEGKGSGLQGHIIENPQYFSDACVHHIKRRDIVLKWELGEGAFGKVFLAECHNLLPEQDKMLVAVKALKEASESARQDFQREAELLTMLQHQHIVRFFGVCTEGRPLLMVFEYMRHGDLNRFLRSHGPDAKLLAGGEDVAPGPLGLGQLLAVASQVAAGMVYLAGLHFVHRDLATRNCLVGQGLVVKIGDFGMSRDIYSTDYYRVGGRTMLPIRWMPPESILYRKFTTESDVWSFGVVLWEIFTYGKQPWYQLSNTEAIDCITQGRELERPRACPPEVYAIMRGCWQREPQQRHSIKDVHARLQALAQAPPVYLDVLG

PYK2 = molecular target: T2, PYK2 (Homo sapiens, UniProt Q14289)
T2 construct: purchased Eurofins DiscoverX KINOMEscan (scanTK)

FLT3(N841I) = molecular target: T3, FLT3(N841I) (Homo sapiens, UniProt P36888, N841I)
T3 construct: purchased Eurofins DiscoverX KINOMEscan (scanTK)
T3 sequence (P36888 27-993 N841I): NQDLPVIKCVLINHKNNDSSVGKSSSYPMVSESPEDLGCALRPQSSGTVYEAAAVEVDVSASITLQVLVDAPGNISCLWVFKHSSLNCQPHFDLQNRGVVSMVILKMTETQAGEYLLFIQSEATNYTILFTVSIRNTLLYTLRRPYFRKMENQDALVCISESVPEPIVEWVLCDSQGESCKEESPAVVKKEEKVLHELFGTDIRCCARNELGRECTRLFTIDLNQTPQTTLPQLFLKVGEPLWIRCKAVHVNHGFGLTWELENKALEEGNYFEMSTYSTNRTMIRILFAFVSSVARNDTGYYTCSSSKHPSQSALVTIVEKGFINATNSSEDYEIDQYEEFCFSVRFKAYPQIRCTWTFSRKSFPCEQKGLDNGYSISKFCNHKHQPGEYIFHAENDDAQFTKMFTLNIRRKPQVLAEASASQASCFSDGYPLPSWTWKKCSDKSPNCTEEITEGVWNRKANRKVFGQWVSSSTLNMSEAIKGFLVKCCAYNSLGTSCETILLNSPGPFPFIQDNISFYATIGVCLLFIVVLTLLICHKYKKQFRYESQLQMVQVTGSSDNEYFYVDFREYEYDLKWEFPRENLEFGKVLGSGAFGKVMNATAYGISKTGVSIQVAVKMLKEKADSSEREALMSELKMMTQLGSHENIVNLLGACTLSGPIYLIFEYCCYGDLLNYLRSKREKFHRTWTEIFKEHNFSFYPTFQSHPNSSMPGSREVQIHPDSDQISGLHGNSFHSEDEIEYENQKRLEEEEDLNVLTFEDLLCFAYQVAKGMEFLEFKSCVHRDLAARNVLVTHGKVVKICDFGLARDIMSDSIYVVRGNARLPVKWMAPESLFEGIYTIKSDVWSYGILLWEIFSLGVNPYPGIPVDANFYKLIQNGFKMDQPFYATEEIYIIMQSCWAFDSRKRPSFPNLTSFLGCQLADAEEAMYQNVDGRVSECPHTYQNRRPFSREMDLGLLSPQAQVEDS

SRC = molecular target: T4, SRC (Homo sapiens, UniProt P12931)
T4 construct: purchased Eurofins DiscoverX KINOMEscan (scanTK)
T4 sequence (P12931 whole entry): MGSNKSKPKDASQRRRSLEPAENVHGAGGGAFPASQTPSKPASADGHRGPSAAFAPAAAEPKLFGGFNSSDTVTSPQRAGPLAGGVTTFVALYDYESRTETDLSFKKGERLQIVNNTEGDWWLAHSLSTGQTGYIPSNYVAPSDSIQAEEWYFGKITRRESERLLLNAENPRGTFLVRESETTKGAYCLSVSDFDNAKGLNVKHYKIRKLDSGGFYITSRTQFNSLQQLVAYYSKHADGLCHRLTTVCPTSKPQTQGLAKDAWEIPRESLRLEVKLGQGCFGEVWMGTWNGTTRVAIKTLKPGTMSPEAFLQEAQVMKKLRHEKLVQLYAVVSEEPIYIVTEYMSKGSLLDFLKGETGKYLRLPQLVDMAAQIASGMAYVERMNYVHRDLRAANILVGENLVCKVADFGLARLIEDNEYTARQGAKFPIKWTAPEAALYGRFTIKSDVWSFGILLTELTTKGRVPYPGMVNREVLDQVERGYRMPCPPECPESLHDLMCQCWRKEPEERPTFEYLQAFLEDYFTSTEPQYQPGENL

BLK = molecular target: T5, BLK (Homo sapiens, UniProt P51451); conditions: BLK
T5 construct: purchased Eurofins DiscoverX KINOMEscan (scanTK)
T5 sequence (P51451 whole entry): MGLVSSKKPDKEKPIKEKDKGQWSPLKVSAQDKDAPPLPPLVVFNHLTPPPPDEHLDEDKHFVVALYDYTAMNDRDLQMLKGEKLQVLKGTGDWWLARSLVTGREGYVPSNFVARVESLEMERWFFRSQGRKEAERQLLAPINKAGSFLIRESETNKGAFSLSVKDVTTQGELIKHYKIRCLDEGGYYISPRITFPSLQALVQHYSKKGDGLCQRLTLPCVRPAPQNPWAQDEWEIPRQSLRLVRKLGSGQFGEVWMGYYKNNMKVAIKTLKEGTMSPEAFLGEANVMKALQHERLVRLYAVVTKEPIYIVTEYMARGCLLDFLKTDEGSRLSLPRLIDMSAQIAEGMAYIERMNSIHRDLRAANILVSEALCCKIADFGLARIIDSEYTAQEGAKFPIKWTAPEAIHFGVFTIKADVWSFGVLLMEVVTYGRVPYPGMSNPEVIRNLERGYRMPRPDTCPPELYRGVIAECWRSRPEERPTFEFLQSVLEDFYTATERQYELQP

CSF1R-autoinhibited = molecular target: T6, CSF1R-autoinhibited (Homo sapiens, UniProt P07333)
T6 construct: purchased Eurofins DiscoverX KINOMEscan (scanTK)
T6 sequence (P07333 539-972 limits assumed): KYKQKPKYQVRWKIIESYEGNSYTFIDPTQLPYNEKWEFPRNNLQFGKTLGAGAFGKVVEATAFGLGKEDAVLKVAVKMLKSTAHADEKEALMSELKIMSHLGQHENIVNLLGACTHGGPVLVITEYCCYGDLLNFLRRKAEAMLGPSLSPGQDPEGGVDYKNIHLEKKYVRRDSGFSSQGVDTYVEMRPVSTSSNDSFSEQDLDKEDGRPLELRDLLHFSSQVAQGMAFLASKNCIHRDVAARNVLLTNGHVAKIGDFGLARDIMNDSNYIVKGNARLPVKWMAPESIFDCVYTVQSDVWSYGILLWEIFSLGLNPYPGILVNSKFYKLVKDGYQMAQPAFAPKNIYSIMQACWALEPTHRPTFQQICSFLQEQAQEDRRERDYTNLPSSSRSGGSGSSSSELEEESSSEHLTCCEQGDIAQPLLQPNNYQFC

LYN = molecular target: T7, LYN (Homo sapiens, UniProt P07948)
T7 construct: purchased Eurofins DiscoverX KINOMEscan (scanTK)

[1] = molecular target: T8, ABL1(Q252H)-nonphosphorylated (Homo sapiens, UniProt P00519, Q252H)
T8 construct: purchased Eurofins DiscoverX KINOMEscan (scanTK)

ROS1 = molecular target: T9, ROS1 (Homo sapiens, UniProt P08922)
T9 construct: purchased Eurofins DiscoverX KINOMEscan (scanTK)

TNK2 = molecular target: T10, TNK2 (Homo sapiens, UniProt Q07912)
T10 construct: purchased Eurofins DiscoverX KINOMEscan (scanTK)
T10 sequence (Q07912 whole entry): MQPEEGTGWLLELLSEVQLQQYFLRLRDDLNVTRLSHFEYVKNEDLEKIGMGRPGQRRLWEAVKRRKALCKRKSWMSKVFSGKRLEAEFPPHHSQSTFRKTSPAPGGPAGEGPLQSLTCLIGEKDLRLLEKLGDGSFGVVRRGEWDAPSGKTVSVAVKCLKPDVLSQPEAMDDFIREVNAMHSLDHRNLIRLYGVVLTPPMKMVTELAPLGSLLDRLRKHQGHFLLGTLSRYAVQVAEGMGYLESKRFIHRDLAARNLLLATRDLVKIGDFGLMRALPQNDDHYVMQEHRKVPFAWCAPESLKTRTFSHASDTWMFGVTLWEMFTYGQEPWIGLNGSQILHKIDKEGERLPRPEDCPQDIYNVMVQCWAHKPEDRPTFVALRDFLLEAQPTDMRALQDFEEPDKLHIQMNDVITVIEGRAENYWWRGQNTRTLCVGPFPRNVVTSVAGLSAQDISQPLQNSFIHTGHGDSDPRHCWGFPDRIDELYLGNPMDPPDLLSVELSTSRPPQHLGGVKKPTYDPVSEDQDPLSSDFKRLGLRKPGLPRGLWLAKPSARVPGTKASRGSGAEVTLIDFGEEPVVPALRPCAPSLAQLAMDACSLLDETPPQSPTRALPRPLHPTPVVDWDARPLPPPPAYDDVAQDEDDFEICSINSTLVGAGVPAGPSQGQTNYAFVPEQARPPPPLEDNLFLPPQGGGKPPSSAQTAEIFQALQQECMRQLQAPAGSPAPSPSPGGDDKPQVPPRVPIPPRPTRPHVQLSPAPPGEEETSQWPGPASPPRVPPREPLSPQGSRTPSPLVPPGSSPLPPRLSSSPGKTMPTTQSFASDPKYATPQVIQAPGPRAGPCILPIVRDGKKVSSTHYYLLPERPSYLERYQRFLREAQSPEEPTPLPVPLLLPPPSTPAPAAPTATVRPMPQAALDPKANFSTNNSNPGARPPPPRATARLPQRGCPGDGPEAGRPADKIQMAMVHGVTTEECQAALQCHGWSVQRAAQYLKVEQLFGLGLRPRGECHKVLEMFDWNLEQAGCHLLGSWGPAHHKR

CSK = molecular target: T11, CSK (Homo sapiens, UniProt P41240)
T11 construct: purchased Eurofins DiscoverX KINOMEscan (scanTK)

[2] = molecular target: T12, JAK1(JH1domain-catalytic) (Homo sapiens, UniProt P23458)
T12 construct: JAK1(JH1domain-catalytic); purchased Eurofins DiscoverX KINOMEscan (scanTK)
T12 sequence (P23458 875-1154 limits assumed): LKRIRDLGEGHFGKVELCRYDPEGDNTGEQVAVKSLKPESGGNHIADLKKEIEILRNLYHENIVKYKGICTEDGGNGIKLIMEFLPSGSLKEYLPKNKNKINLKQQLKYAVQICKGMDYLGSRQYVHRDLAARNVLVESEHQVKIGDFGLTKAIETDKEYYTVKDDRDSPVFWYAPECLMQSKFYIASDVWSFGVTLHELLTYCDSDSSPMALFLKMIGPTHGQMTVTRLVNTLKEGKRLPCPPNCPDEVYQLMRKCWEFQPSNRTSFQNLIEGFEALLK

ALK = molecular target: T13, ALK (Homo sapiens, UniProt Q9UM73)
T13 construct: purchased Eurofins DiscoverX KINOMEscan (scanTK)
T13 sequence (Q9UM73 19-1620): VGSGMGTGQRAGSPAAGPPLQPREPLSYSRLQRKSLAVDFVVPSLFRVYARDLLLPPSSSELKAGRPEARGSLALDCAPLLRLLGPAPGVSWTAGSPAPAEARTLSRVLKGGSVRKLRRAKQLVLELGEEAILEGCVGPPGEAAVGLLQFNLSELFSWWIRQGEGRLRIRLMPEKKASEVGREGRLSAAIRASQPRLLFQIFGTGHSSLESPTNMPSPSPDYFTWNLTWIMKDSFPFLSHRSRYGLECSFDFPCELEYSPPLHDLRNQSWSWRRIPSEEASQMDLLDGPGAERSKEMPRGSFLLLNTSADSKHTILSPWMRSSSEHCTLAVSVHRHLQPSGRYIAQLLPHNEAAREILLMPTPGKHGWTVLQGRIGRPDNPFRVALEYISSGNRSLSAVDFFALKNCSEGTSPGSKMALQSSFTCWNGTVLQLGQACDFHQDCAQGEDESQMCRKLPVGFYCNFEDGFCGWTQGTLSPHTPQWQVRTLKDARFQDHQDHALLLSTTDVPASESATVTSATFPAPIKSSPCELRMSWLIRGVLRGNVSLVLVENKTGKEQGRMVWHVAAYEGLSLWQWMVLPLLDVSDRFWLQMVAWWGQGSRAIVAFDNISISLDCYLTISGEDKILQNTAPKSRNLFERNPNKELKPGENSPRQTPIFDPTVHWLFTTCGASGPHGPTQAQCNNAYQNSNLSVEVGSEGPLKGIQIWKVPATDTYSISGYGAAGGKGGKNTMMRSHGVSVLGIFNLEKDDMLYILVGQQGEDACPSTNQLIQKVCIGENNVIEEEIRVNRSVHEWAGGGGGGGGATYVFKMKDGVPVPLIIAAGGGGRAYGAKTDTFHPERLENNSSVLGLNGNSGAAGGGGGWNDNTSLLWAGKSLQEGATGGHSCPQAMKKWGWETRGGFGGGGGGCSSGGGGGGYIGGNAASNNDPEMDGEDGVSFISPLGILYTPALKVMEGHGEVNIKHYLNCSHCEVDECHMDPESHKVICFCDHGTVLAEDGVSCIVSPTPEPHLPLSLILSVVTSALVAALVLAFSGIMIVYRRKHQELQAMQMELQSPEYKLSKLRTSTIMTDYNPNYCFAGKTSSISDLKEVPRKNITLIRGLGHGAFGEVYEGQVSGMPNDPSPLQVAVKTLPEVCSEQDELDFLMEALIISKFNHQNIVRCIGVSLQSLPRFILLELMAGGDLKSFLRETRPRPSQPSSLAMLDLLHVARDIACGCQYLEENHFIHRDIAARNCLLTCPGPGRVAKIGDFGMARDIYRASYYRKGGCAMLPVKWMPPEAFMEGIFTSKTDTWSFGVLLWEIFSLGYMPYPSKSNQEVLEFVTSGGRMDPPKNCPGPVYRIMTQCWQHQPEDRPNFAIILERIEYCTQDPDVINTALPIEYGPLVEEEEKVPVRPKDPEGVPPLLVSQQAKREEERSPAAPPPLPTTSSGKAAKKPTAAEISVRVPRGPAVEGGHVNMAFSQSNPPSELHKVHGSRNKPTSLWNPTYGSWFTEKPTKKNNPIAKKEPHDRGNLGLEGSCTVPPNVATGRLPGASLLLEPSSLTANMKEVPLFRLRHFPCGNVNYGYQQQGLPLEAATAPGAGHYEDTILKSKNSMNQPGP

RET(M918T) = molecular target: T14, RET(M918T) (Homo sapiens, UniProt P07949, M918T)
T14 construct: purchased Eurofins DiscoverX KINOMEscan (scanTK)

MET(M1250T) = molecular target: T15, MET(M1250T) (Homo sapiens, UniProt P08581, M1250T)
T15 construct: purchased Eurofins DiscoverX KINOMEscan (scanTK)

[3] = molecular target: T16, EGFR(L747-S752del, P753S) (Homo sapiens, UniProt P00533, DEL747-752/P753S)
T16 construct: purchased Eurofins DiscoverX KINOMEscan (scanTK)
T16 sequence (P00533 with tags, fused parts or gaps DEL747-752/P753S limits assumed): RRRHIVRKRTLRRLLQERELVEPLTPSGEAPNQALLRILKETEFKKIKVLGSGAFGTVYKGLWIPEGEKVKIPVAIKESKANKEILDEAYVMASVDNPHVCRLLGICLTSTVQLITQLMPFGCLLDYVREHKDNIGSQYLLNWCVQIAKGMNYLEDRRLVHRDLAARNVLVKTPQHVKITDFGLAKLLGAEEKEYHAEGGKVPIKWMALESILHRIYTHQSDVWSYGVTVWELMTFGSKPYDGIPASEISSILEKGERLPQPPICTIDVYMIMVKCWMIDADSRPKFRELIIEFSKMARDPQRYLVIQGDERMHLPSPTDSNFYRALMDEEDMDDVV

KIT-autoinhibited = molecular target: T17, KIT-autoinhibited (Homo sapiens, UniProt P10721)
T17 construct: purchased Eurofins DiscoverX KINOMEscan (scanTK)

[4] = @1000nM, read-out: % difference (compound - Ib %Control)

difference in % of control versus compound Ib at 1 µM (TRKA; @1000nM): 4% | remaining binding at 1 µM (TRKA; @1000nM, read-out: %Control): 89% | remaining binding at 1 µM (TRKA; read-out: %Control @1000nM): 89% | remaining binding at 1 µM (PYK2; @1000nM, read-out: %Control): 85% | remaining binding at 1 µM (PYK2; read-out: %Control @1000nM): 85% | difference in %Control versus compound Ib at 1 µM (FLT3(N841I); @1000nM): 43% | remaining binding at 1 µM (FLT3(N841I); @1000nM, read-out: %Control): 62% | remaining binding at 1 µM (FLT3(N841I); read-out: %Control @1000nM): 62% | remaining binding at 1 µM (SRC; @1000nM, read-out: %Control): 60% | remaining binding at 1 µM (SRC; read-out: %Control @1000nM): 60% | difference in %Control vs reference Ib at 1 µM (BLK; [4]): 0.35% | remaining binding at 1 µM (BLK; @1000nM, read-out: %Control): 0.4% | remaining binding at 1 µM (BLK; read-out: %Control @1000nM): 0.4% | difference in %Control versus compound Ib at 1 µM (CSF1R-autoinhibited; @1000nM): 7% | remaining binding at 1 µM (CSF1R-autoinhibited; @1000nM, read-out: %Control): 84% | remaining binding at 1 µM (CSF1R-autoinhibited; read-out: %Control @1000nM): 84% | remaining binding at 1 µM (LYN; @1000nM, read-out: %Control): 49% | remaining binding at 1 µM (LYN; read-out: %Control @1000nM): 49% | difference in %Control versus reference compound Ib at 1 µM ([1]; @1000nM): 52% | remaining binding at 1 µM ([1]; @1000nM, read-out: %Control): 65% | remaining binding at 1 µM ([1]; read-out: %Control @1000nM): 65% | %Control difference versus reference Ib at 1 µM (ROS1; [4]): -11% | remaining binding at 1 µM (ROS1; @1000nM, read-out: %Control): 86% | remaining binding at 1 µM (ROS1; read-out: %Control @1000nM): 86% | remaining binding at 1 µM (TNK2; @1000nM, read-out: %Control): 100% | remaining binding at 1 µM (TNK2; read-out: %Control @1000nM): 100% | difference in %Control from reference compound Ib at 1 µM (CSK; @1000nM): 21.5% | remaining binding at 1 µM (CSK; @1000nM, read-out: %Control): 26% | remaining binding at 1 µM (CSK; read-out: %Control @1000nM): 26% | difference in %Control versus compound Ib at 1 µM ([2]; @1000nM): 3% | remaining binding at 1 µM ([2]; @1000nM, read-out: %Control): 97% | remaining binding at 1 µM ([2]; read-out: %Control @1000nM): 97% | difference in %Control versus compound Ib at 1 µM (ALK; @1000nM): 6% | remaining binding at 1 µM (ALK; @1000nM, read-out: %Control): 100% | remaining binding at 1 µM (ALK; read-out: %Control @1000nM): 100% | remaining binding at 1 µM (RET(M918T); @1000nM, read-out: %Control): 49% | remaining binding at 1 µM (RET(M918T); read-out: %Control @1000nM): 49% | remaining binding at 1 µM (MET(M1250T); @1000nM, read-out: %Control): 96% | remaining binding at 1 µM (MET(M1250T); read-out: %Control @1000nM): 96% | difference in %Control versus compound Ib at 1 µM ([3]; @1000nM): 89.5% | remaining binding at 1 µM ([3]; @1000nM, read-out: %Control): 95% | remaining binding at 1 µM ([3]; read-out: %Control @1000nM): 95% | remaining binding at 1 µM (KIT-autoinhibited; @1000nM, read-out: %Control): 90% | remaining binding at 1 µM (KIT-autoinhibited; read-out: %Control @1000nM): 90%
Structure (SMILES): COC(=O)c1cnc(S(C)(=O)=O)nc1N1CCCC(n2nc(-c3ccc(Oc4ccccc4)cc3)c3c(N)ncnc32)C1 (centres unmarked) [Compound 8b, Methyl 4-(3-(4-Amino-3-(4-phenoxyphenyl)-1H-pyrazolo[3,4-d]pyrimidin-1-yl)piperidin-1-yl)-2-(methylsulfonyl)pyrimidine-5-carboxylate]
